According to ChEMBL document CHEMBL1137443, “Preparation of 4-aryl-2-trifluoromethylbenzonitrile derivatives as androgen receptor antagonists for topical suppression of sebum production” (Bioorg Med Chem Lett, 2007):

How the values were obtained:
Androgen receptor [1] = target: T1, Androgen receptor (Homo sapiens, UniProt P10275); assay: Antagonist activity at human AR in MDA-MB453-MMTV-luci cells by functional assay; assay type: cell-based
T1 sequence (P10275 whole entry): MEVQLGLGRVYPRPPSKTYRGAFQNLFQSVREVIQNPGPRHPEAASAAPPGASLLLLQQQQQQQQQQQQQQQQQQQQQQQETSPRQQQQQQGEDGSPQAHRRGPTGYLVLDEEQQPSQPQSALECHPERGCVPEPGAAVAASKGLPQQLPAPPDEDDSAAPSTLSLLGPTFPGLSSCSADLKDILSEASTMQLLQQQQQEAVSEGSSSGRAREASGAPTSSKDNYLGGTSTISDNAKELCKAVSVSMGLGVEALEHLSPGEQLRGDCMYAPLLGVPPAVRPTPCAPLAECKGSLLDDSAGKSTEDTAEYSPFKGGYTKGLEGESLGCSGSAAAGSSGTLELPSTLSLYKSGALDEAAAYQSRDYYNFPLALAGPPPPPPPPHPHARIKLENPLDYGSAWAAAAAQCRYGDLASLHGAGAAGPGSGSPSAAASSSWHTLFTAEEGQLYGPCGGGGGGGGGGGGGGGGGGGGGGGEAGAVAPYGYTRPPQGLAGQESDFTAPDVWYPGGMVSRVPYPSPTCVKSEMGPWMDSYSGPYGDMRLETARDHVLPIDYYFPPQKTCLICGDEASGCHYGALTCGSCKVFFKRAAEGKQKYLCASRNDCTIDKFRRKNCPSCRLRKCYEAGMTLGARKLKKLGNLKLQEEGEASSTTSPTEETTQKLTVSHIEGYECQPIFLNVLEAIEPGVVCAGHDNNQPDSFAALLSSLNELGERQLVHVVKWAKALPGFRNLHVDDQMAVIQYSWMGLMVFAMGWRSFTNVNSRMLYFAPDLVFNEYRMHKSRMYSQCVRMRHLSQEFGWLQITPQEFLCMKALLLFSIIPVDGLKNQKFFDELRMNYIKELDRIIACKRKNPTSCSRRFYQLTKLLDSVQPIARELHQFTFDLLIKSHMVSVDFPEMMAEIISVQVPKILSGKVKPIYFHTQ

Androgen receptor [2] = target: T1, Androgen receptor; assay: Displacement of [3H]DHT from human recombinant AR expressed in Sf9 cells
Progesterone receptor = target: T2, Progesterone receptor (Homo sapiens, UniProt P06401); assay: Binding affinity at human PR
T2 sequence (P06401 whole entry): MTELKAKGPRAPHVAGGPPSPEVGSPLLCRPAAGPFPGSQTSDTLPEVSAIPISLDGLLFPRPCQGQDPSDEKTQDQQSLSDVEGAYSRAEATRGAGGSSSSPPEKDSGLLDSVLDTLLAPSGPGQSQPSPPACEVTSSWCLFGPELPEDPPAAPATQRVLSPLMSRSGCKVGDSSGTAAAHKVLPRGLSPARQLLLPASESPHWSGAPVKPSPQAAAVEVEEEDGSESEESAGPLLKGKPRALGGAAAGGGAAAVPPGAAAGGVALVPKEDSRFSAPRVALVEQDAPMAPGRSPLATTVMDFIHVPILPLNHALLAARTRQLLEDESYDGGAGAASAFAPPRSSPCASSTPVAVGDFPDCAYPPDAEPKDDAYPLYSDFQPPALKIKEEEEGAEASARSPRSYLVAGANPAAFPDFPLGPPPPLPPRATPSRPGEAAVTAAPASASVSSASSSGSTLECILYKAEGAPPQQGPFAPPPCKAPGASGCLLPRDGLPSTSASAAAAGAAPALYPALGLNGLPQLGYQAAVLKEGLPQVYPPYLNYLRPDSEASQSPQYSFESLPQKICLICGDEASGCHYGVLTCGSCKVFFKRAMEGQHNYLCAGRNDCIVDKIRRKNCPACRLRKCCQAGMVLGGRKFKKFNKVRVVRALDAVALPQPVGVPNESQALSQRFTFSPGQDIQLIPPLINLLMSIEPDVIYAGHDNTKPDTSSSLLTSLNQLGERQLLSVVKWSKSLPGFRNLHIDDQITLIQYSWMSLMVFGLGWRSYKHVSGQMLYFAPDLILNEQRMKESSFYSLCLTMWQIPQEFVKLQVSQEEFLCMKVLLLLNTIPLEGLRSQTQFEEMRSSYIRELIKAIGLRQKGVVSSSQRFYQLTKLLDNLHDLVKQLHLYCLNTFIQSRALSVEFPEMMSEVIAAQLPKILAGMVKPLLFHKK

Syrian golden hamster = assay: Reduction of wax ester in Golden Syrian hamster ear model relative to control; assay type: functional, Mesocricetus auratus; design: scale not given: the % may be the effect or the level left

COc1ccc(-c2ccc(C#N)c(C(F)(F)F)c2)cc1
IC50 (Androgen receptor [1]): 0.8 nM
IC50 (Androgen receptor [2]): 56.7 nM
IC50 (Progesterone receptor): 5520 nM

N#Cc1ccc(-c2ccc(O)cc2)cc1C(F)(F)F
IC50 (Androgen receptor [1]): 11.9 nM
IC50 (Androgen receptor [2]): 61.2 nM
IC50 (Progesterone receptor): > 10000 nM

Cc1ccccc1-c1ccc(C#N)c(C(F)(F)F)c1
IC50 (Androgen receptor [1]): > 1000 nM
IC50 (Androgen receptor [2]): 146 nM

Cc1cccc(-c2ccc(C#N)c(C(F)(F)F)c2)c1
IC50 (Androgen receptor [2]): 1900 nM

COC(=O)COc1ccccc1-c1ccc(C#N)c(C(F)(F)F)c1
IC50 (Androgen receptor [2]): 1310 nM

N#Cc1ccc(-c2ccccc2OCCO)cc1C(F)(F)F
IC50 (Androgen receptor [2]): 1540 nM

COCCOCCOc1ccccc1-c1ccc(C#N)c(C(F)(F)F)c1
IC50 (Androgen receptor [2]): 8140 nM

N#Cc1ccc(-c2ccccc2Cl)cc1C(F)(F)F
IC50 (Androgen receptor [2]): 9.8 nM

COc1ccccc1-c1ccc(C#N)c(C(F)(F)F)c1
IC50 (Androgen receptor [1]): 20.1 nM
IC50 (Androgen receptor [2]): 37 nM
IC50 (Progesterone receptor): 3250 nM

COCCOc1ccccc1-c1ccc(C#N)c(C(F)(F)F)c1
IC50 (Androgen receptor [2]): 2230 nM

N#Cc1ccc(-c2ccccc2O)cc1C(F)(F)F
IC50 (Androgen receptor [1]): 0.02 nM
Activity (Syrian golden hamster): 86%
IC50 (Androgen receptor [2]): 39.9 nM
IC50 (Progesterone receptor): 4450 nM

N#Cc1ccc(-c2cccc(O)c2)cc1C(F)(F)F
IC50 (Androgen receptor [2]): 229 nM

Cc1ccc(-c2ccc(C#N)c(C(F)(F)F)c2)cc1
IC50 (Androgen receptor [1]): 843 nM
IC50 (Androgen receptor [2]): 200 nM

N#Cc1ccc(-c2c(O)cccc2O)cc1C(F)(F)F
IC50 (Androgen receptor [2]): 989 nM

N#Cc1ccc(-c2ccccc2C(F)(F)F)cc1C(F)(F)F
IC50 (Androgen receptor [1]): > 1 nM
IC50 (Androgen receptor [2]): 10.9 nM

COc1cccc(OC)c1-c1ccc(C#N)c(C(F)(F)F)c1
IC50 (Androgen receptor [1]): 399 nM
IC50 (Androgen receptor [2]): 14.7 nM

COc1cccc(-c2ccc(C#N)c(C(F)(F)F)c2)c1
IC50 (Androgen receptor [1]): 140 nM
IC50 (Androgen receptor [2]): 955 nM
IC50 (Progesterone receptor): 9460 nM

N#Cc1ccc(-c2ccccc2OCC(=O)O)cc1C(F)(F)F
IC50 (Androgen receptor [2]): > 10000 nM

CC1(C)C(=O)N(c2ccc(C#N)c(C(F)(F)F)c2)C(=O)N1CCCCO [RU-58841]
Activity (Syrian golden hamster): 95%
